Experimental data taken from the supplement of paper PMC11061612.

Key:
ES7 (Ewing's Sarcoma) = experiment: Bliss excess, mean over the matrix (fraction); higher = more synergy
Method in brief: (§1)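 Bliss excess equals the observed combination effect minus the expected value EA + EB − EA·EB, where EA and EB are the effects of each agent alone. Combination Emax is the second-highest inhibition within the matrix. Inhibition was scaled from CellTiter-Glo 2.0 luminescence, with 0 set by vehicle wells and 1 by blank wells, after 72 hours of two-drug dosing of cells plated in 1536-well plates.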

[1] = tested on: NALM-6 (B-Lymphoblastic Leukemia); experiment: as above
Method in brief: as §1

[2] = tested on: COR-L95 (Small Cell Lung Carcinoma); experiment: as above
Method in brief: as §1

[3] = tested on: HT-29 (Colorectal Carcinoma); experiment: as above
Method in brief: as §1

[4] = tested on: MDA-MB-231 (Breast Carcinoma); experiment: as above
Method in brief: as §1

[5] = tested on: TE-5 (Esophageal Squamous Cell Carcinoma); experiment: as above
Method in brief: as §1

[6] = tested on: DB (B-Cell Non-Hodgkin's Lymphoma); experiment: as above
Method in brief: as §1

[7] = tested on: SW1783 (Low Grade Glioma); experiment: as above
Method in brief: as §1

[8] = tested on: SW1990 (Pancreatic Carcinoma); experiment: as above
Method in brief: as §1

[9] = tested on: U-266 (Plasma Cell Myeloma); experiment: as above
Method in brief: as §1

[10] = tested on: SW1088 (Low Grade Glioma); experiment: as above
Method in brief: as §1

[11] = tested on: MDA-MB-157 (Breast Carcinoma); experiment: as above
Method in brief: as §1

[12] = tested on: NCI-H1299 (Non-Small Cell Lung Carcinoma); experiment: as above
Method in brief: as §1

[13] = tested on: COR-L95 (Small Cell Lung Carcinoma); experiment: combination Emax (second highest fraction inhibited in the dose matrix, 72 h); higher = more inhibition; extreme values may be limits of the assay
Method in brief: as §1

DSH1 (Bladder Carcinoma) = experiment: as above
Method in brief: as §1

[14] = tested on: HT-29 (Colorectal Carcinoma); experiment: as above
Method in brief: as §1

[15] = tested on: MDA-MB-231 (Breast Carcinoma); experiment: as above
Method in brief: as §1

[16] = tested on: TE-5 (Esophageal Squamous Cell Carcinoma); experiment: as above
Method in brief: as §1

[17] = tested on: G-292-Clone-A141B1 (Osteosarcoma); experiment: as above
Method in brief: as §1

[18] = tested on: KATOIII (Gastric Carcinoma); experiment: as above
Method in brief: as §1

SMILES | Bliss excess (ES7 (Ewing's Sarcoma)) | Bliss excess [1] | Bliss excess [2] | Bliss excess [3] | Bliss excess [4] | Bliss excess [5] | Bliss excess [6] | Bliss excess [7] | Bliss excess [8] | Bliss excess [9] | Bliss excess [10] | Bliss excess [11] | Bliss excess [12] | combination Emax [13] | combination Emax (DSH1 (Bladder Carcinoma)) | combination Emax [14] | combination Emax [15] | combination Emax [16] | combination Emax [17] | combination Emax [18]
C[C@@H]1COCCN1c1cc(C2([S@](C)(=N)=O)CC2)nc(-c2ccnc3[nH]ccc23)n1 [AZD6738] + Nc1ccn([C@@H]2O[C@H](CO)[C@@H](O)C2(F)F)c(=O)n1 [Gemcitabine] (first compound max 10 µM, 7x7, partner max 0.3 µM) | 0.0367 | -0.0252 | -0.0359 | 0.0492 | 0.0736 | -0.0102 | -0.0172 | -0.0109 | -0.0028 | 0.057 | -0.0399 | 0.0295 | 0.0963 | 0.459 | 1 | 0.873 | 0.858 | 0.666 | 0.413 | 0.656
CN(CCO)CC[C@H](CSc1ccccc1)Nc1ccc(S(=O)(=O)NC(=O)c2ccc(N3CCC([C@@H](O)c4ccccc4-c4ccc(Cl)cc4)CC3)cc2)cc1S(=O)(=O)C(F)(F)F [AZD4320] + CC(=O)O[C@H]1C(=O)[C@@]2(C)[C@H]([C@H](OC(=O)c3ccccc3)[C@]3(O)C[C@H](OC(=O)[C@H](O)[C@@H](NC(=O)c4ccccc4)c4ccccc4)C(C)=C1C3(C)C)[C@]1(OC(C)=O)CO[C@@H]1C[C@@H]2O [Paclitaxel] (first compound max 1 µM, 7x7, partner max 3 µM) | 0.0227 | 0.013 | 0.141 | 0.0034 | 0.111 | 0.176 | 0.043 | 0.0754 | 0.329 | 0.0026 | 0.0303 | 0.0168 | 0.007 | 1 | 1 | 0.885 | 0.984 | 0.968 | 0.891 | 0.803
Cc1nc(-c2cn3c(n2)-c2ccc(-c4cnn(C(C)(C)C(N)=O)c4)cc2OCC3)n(C(C)C)n1 [Taselisib] + O=C(Nc1ccc2[nH]nc(-c3ccncc3)c2c1)[C@@H]1CCN(CC(=O)N2CCN(c3ccc(-c4ncccn4)cc3)CC2)C1 [SCH772984] (first compound max 10 µM, 7x7, partner max 5 µM) | 0.036 | 0.017 | -0.0479 | 0.111 | 0.0595 | 0.113 | 0.0783 | -0.0071 | 0.0724 | 0.0774 | -0.0867 | 0.0631 | 0.0654 | 0.238 | 0.977 | 0.965 | 0.834 | 0.822 | 0.945 | 0.583
C[C@@H](Oc1cc(-c2cnn(C3CCNCC3)c2)cnc1N)c1c(Cl)ccc(F)c1Cl [Crizotinib] + Cn1cnc2c(F)c(Nc3ccc(Br)cc3Cl)c(C(=O)NOCCO)cc21 [Selumetinib] (first compound max 10 µM, 7x7, partner max 10 µM) | -0.0134 | -0.0149 | -0.0955 | -0.018 | 0.0323 | -0.0366 | -0.0472 | -0.0486 | -0.0626 | -0.021 | -0.0256 | -0.0125 | 0.0598 | 0.345 | 0.229 | 0.98 | 0.725 | 0.186 | 0.794 | 0.588
C[C@@H](Nc1cc(F)cc(F)c1)c1cc(C(=O)N(C)C)cc2c(=O)cc(N3CCOCC3)oc12 [AZD8186] + C1CN(CCC1(C(=O)N[C@@H](CCO)C2=CC=C(C=C2)Cl)N)C3=NC=NC4=C3C=CN4 [AZD5363] (first compound max 10 µM, 7x7, partner max 10 µM) | 0.0043 | -0.0357 | -0.0781 | -0.0172 | 0.0036 | 0.0152 | -0.0191 | -0.0125 | -0.0436 | -0.0427 | -0.0474 | 0.0227 | 0.0024 | 0.225 | 0.327 | 0.449 | 0.281 | 0.35 | 0.515 | 0.0505
C=CCn1c(=O)c2cnc(Nc3ccc(N4CCN(C)CC4)cc3)nc2n1-c1cccc(C(C)(C)O)n1 [AZD1775] + CCc1c2c(nc3ccc(O)cc13)-c1cc3c(c(=O)n1C2)COC(=O)[C@]3(O)CC [SN-38] (first compound max 1 µM, partner max 0.3 µM) | -0.0228 | -0.0563 | -0.103 | 0.027 | 0.0031 | -0.0583 | -0.0366 | -0.0817 | -0.0908 | -0.0555 | -0.0641 | 0.0495 | -0.0071 | 0.542 | 0.999 | 0.929 | 0.916 | 0.875 | 0.464 | 0.431
O=C(c1cc(Cc2n[nH]c(=O)c3ccccc23)ccc1F)N1CCN(C(=O)C2CC2)CC1 [Olaparib] + CN(CC[C@H](CSC1=CC=CC=C1)NC2=C(C=C(C=C2)S(=O)(=O)NC(=O)C3=CC=C(C=C3)N4CCC(CC4)[C@H](C5=CC=CC=C5C6=CC=C(C=C6)Cl)O)S(=O)(=O)C(F)(F)F)CCO [AZD4320] (first compound max 10 µM, 7x7, partner max 1 µM) | 0.0156 | 0.0211 | 0.0593 | -0.0278 | -0.071 | -0.0436 | -0.0863 | -0.0391 | -0.0818 | -0.0187 | -0.0518 | -0.0094 | -0.0463 | 1 | 0.512 | 0.104 | 0.668 | 0.238 | 0.419 | 0.37
N#Cc1cnc(Nc2cc(NC[C@H]3CNCCO3)c(C(F)(F)F)cn2)cn1 [SRA737] + O=c1[nH]cc(F)c(=O)[nH]1 [5-Fluorouracil] (first compound max 10 µM, 7x7, partner max 20 µM) | 0.0157 | 0.0117 | -0.0218 | 0.021 | -0.0492 | 0.0052 | -0.0088 | 0.0143 | -0.0577 | 0.0562 | 0.0081 | 0.0781 | -0.0191 | 0.232 | 0.414 | 0.696 | 0.271 | 0.24 | 0.121 | 0.565
O=C(c1cc(Cc2n[nH]c(=O)c3ccccc23)ccc1F)N1CCN(C(=O)C2CC2)CC1 [Olaparib] + COc1nnc2ccc(N3CCC(c4ccc(OCCN5CCN(C)C(=O)[C@H]5C)cc4)CC3)nn12 [AZD5153] (first compound max 10 µM, 7x7, partner max 1 µM) | 0.0166 | -0.0547 | -0.0488 | -0.0406 | -0.0586 | -0.052 | 0.0255 | -0.0177 | -0.0669 | -0.0332 | -0.0563 | -0.0507 | -0.0826 | 0.455 | 0.647 | 0.658 | 0.626 | 0.347 | 0.224 | 0.4
CS(=O)(=O)CCNCc1ccc(-c2ccc3ncnc(Nc4ccc(OCc5cccc(F)c5)c(Cl)c4)c3c2)o1 [Lapatinib] + NC1(c2ccc(-c3nc4ccn5c(=O)[nH]nc5c4cc3-c3ccccc3)cc2)CCC1 [MK-2206] (first compound max 10 µM, 7x7, partner max 10 µM) | 0.036 | -0.0044 | 0.0048 | 0.0084 | 0.0364 | 0.0735 | -0.0017 | -0.0201 | -0.003 | -0.016 | 0.0163 | -0.0057 | 0.0027 | 0.904 | 1 | 0.95 | 0.729 | 0.728 | 0.468 | 0.44
CS(=O)(=O)CCNCc1ccc(-c2ccc3ncnc(Nc4ccc(OCc5cccc(F)c5)c(Cl)c4)c3c2)o1 [Lapatinib] + Cn1cnc2c(F)c(Nc3ccc(Br)cc3Cl)c(C(=O)NOCCO)cc21 [Selumetinib] (first compound max 10 µM, 7x7, partner max 10 µM) | -0.0355 | 0.021 | -0.0382 | 0.0362 | -0.0236 | -0.0241 | 0.0388 | -0.0252 | 0.0373 | 0.0347 | -0.0524 | -0.0598 | 0.0085 | 0.207 | 0.802 | 0.958 | 0.631 | 0.369 | 0.192 | 0.523
Cc1c2c(nn1C)CSCc1cc(n(C)n1)CSc1cc(c3ccccc3c1)OCCCc1c(C(=O)O)n(C)c3c-2c(Cl)ccc13 [AZD5991] + Nc1ccn([C@@H]2O[C@H](CO)[C@@H](O)C2(F)F)c(=O)n1 [Gemcitabine] (first compound max 1 µM, 7x7, partner max 0.3 µM) | 0.0062 | -0.0245 | -0.0274 | 0.0168 | -0.0947 | 0.0112 | 0.06 | -0.0199 | 0.0278 | 0.0379 | -0.0666 | -0.0145 | 0.006 | 0.407 | 1 | 0.6 | 0.587 | 0.75 | 0.152 | 0.49
C[C@@H](Nc1cc(F)cc(F)c1)c1cc(C(=O)N(C)C)cc2c(=O)cc(N3CCOCC3)oc12 [AZD8186] + CC(=O)c1c(C)c2cnc(Nc3ccc(N4CCNCC4)cn3)nc2n(C2CCCC2)c1=O [Palbociclib] (first compound max 10 µM, 7x7, partner max 10 µM) | 0.115 | 0.0084 | -0.0215 | 0.0614 | 0.0305 | 0.0301 | 0.0797 | 0.0594 | -0.0062 | -0.0285 | 0.0658 | 0.0093 | 0.0316 | 0.273 | 0.471 | 0.562 | 0.49 | 0.394 | 0.428 | 0.356
